In publication PMC9663578, “A fluorogenic probe for predicting treatment response in non-small cell lung cancer with EGFR-activating mutations” (Nature Communications, 2022):
“And” between values parts separate entries of the source, which are not always exact repeats. Equal entries are not always repeated.

What was measured:
EGFR 19del = target: T1, EGFR 19del (Homo sapiens, UniProt P00533, DEL746-750); assay: Fluorescence turn-on response / titration of HX103 with recombinant EGFR;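 as to Fluorescence intensity at 570 nm: 100% is HX103 fluorescence with wild-type EGFR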;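 as to Fluorescence response of HX103 to EGFR 19del: ratio I over I0 of probe intensity with versus without protein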; format: binding; conditions: for Fluorescence intensity, DEL19: Fig. 2c; for Fluorescence response of HX103 to EGFR 19del: Supplementary Fig. 2f
T1 construct: purchased Thermo Fisher PV6179
Method: (§1) (d) Fluorescence spectra change of HX103 (5 µ M) with increasing concentration of EGFR L858R
(§2) (e) Fluorescence spectra change of HX103 (5 µ M ) with
(§3) increasing concentration of EGFR 19del (0 to 6 µM) in PBS buffer. (f) Titration curve of HX103
(§4) (5 µM) with increasing concentration of EGFRs (0 to 6 µM). The apparent binding affinity (Kd)
(§5) The fluorescence titration curve was fitted on one -
(§6) site specific binding model. I and I0 represent the intensities of HX103 at 570 nm in the presence
(§7) and absence of protein. Data represent average val ues ± SD, n = 3 independent experiments per
(§8) dissolved in dimethyl sulfoxide (DMSO) to obtain stock solutions (10 mM). The prepared stock
(§9) solution was diluted in sodium phosphate buffer (PBS, 1 M, pH=7.4) to obtain the desired final
(§10) concentration solution, containing 0.1% (v/v) DMSO as a cosolvent.
(§11) and emission fluorescence spectra of the solution before/after addition o f different concentration
(§12) Data analysis：The obtained fluorescence intensity at 570 nm (Excitation wavelength was 440
(§13) nm) in each sample was normalized by using the fluorescence intensity of HX103 in the presence
(§14) of EGFR. Specifically, the fluorescence intensity of HX103 in the presence of EGFR wild-type
(§15) was set at 100% to normalized that of the remaining samples.

EGFR T790M [1] = target: T2, EGFR T790M (Homo sapiens, UniProt P00533, T790M); assay: as above; format: binding; conditions: for Fluorescence intensity, T790M: Fig. 2c; for Fluorescence response of HX103 to EGFR T790M: Supplementary Fig. 2f
T2 construct: EGFR T790M (amino acids 668–1210, #PR8052A); purchased Thermo Fisher PR8052A
Method: as §1, §2, §3, §4, §5, §6, §7, §8, §9, §10, §11, §12, §13, §14, §15

EGFR L858R = target: T3, EGFR L858R (Homo sapiens, UniProt P00533, L858R); assay: Kinase inhibition assay (fluorescent mobility-shift assay); format: biochemical; set-up: Kinase activity: unit not given here; conditions: for Kinase activity: L858R, n=1-3;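 as to decrease of inhibition toward T790M compared to 19del: Cell-free assay with recombinant human EGFR T790M enzyme, compound preincubated with the kinase at room temperature before the reaction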;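 as to decrease of inhibition toward T790M compared to L858R: Cell-free assay with recombinant human EGFR T790M enzyme, compound preincubated with the kinase at room temperature before the reaction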
T3 construct: EGFR L858R (amino acids 668–1210, #PR7447A); purchased Thermo Fisher PR7447A

EGFR T790M [2] = target: T2, EGFR T790M; assay: as above; format: biochemical; set-up: Kinase activity: unit not given here; conditions: for Kinase activity: T790M, n=1-3
[3] = HX103 5 µM in PBS buffer (0.1% DMSO), 570 nm
[4] = HX103 5 µM, EGFR 0 to 6 µM in PBS, one-site specific binding model, read-out: apparent binding affinity (Kd)
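For Fluorescence intensity at 570 nm in this document: 100% is HX103 fluorescence with wild-type EGFR.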

Structure (SMILES): COc1cc2c(Nc3ccc(F)c(Cl)c3)ncnc2cc1OCCCNc1ccc(S(=O)(=O)N(C)C)c2nonc12 [HX103]
- Fluorescence intensity, DEL19 (EGFR 19del; wavelength 666 nm): 6329.64
- Fluorescence intensity, DEL19 (EGFR 19del; wavelength 669 nm): 5943.64
- Fluorescence intensity, DEL19 (EGFR 19del; wavelength 671 nm): 5458.74
- Fluorescence intensity, DEL19 (EGFR 19del; wavelength 673 nm): 4903.02
- Fluorescence intensity, DEL19 (EGFR 19del; wavelength 676 nm): 4330.47
- Fluorescence intensity, DEL19 (EGFR 19del; wavelength 678 nm): 3796.5
- Fluorescence intensity, DEL19 (EGFR 19del; wavelength 681 nm): 3356.07
- Fluorescence intensity, DEL19 (EGFR 19del; wavelength 683 nm): 3030.49
- Fluorescence intensity, DEL19 (EGFR 19del; wavelength 686 nm): 2784.09
- Fluorescence intensity, DEL19 (EGFR 19del; wavelength 688 nm): 2575.72
- Fluorescence intensity, DEL19 (EGFR 19del; wavelength 690 nm): 2364.25
- Fluorescence intensity, DEL19 (EGFR 19del; wavelength 693 nm): 2121.24
- Fluorescence intensity, DEL19 (EGFR 19del; wavelength 695 nm): 1850.71
- Fluorescence intensity, DEL19 (EGFR 19del; wavelength 698 nm): 1561.85
- Fluorescence intensity, DEL19 (EGFR 19del; wavelength 700 nm): 1263.82
- Fluorescence intensity at 570 nm (EGFR 19del; Fig. 2d, HX103 with EGFR 19del, n=1-3): 101.138 and 103.905 and 84.1794
- fluorescence turn-on response (EGFR 19del; [3]): high fluorescence
- Kd (EGFR 19del; [4]): 1100 ± 200 nM
- Fluorescence response of HX103 to EGFR 19del (EGFR 19del; EGFR 0.1 µM, n=1-3): 2.201 and 2.149 and 2.11
- Fluorescence response of HX103 to EGFR 19del (EGFR 19del; EGFR 1 µM, n=1-3): 5.519 and 5.544 and 5.826
- Fluorescence response of HX103 to EGFR 19del (EGFR 19del; EGFR 5 µM, n=1-3): 8.2406 and 9.498 and 10.3034
- Fluorescence response of HX103 to EGFR 19del (EGFR 19del; EGFR 6 µM, n=1-3): 10.0143 and 10.322 and 11.4127
- Fluorescence intensity, T790M (EGFR T790M [1]; wavelength 666 nm): 2748.26
- Fluorescence intensity, T790M (EGFR T790M [1]; wavelength 669 nm): 2609.98
- Fluorescence intensity, T790M (EGFR T790M [1]; wavelength 671 nm): 2444.87
- Fluorescence intensity, T790M (EGFR T790M [1]; wavelength 673 nm): 2257.89
- Fluorescence intensity, T790M (EGFR T790M [1]; wavelength 676 nm): 2067.13
- Fluorescence intensity, T790M (EGFR T790M [1]; wavelength 678 nm): 1891.35
- Fluorescence intensity, T790M (EGFR T790M [1]; wavelength 681 nm): 1749.2
- Fluorescence intensity, T790M (EGFR T790M [1]; wavelength 683 nm): 1648.24
- Fluorescence intensity, T790M (EGFR T790M [1]; wavelength 686 nm): 1577.34
- Fluorescence intensity, T790M (EGFR T790M [1]; wavelength 688 nm): 1523.55
- Fluorescence intensity, T790M (EGFR T790M [1]; wavelength 690 nm): 1473.92
- Fluorescence intensity, T790M (EGFR T790M [1]; wavelength 693 nm): 1419.2
- Fluorescence intensity, T790M (EGFR T790M [1]; wavelength 695 nm): 1359.54
- Fluorescence intensity, T790M (EGFR T790M [1]; wavelength 698 nm): 1296.59
- Fluorescence intensity, T790M (EGFR T790M [1]; wavelength 700 nm): 1231.99
- Fluorescence intensity at 570 nm (EGFR T790M [1]; Fig. 2d, HX103 with EGFR T790M, n=1-3): 62.6243 and 56.177 and 61.7341
- fluorescence turn-on response (EGFR T790M [1]; [3]): relatively low fluorescence
- Kd (EGFR T790M [1]; [4]): 6600 ± 4600 nM
- Fluorescence response of HX103 to EGFR T790M (EGFR T790M [1]; EGFR 0.1 µM, n=1-3): 0.8143 and 0.8764 and 0.5043
- Fluorescence response of HX103 to EGFR T790M (EGFR T790M [1]; EGFR 0.5 µM, n=1-3): 1.381 and 1.689 and 1.392
- Fluorescence response of HX103 to EGFR T790M (EGFR T790M [1]; EGFR 1 µM, n=1-3): 1.713 and 2.039 and 1.744
- Fluorescence response of HX103 to EGFR T790M (EGFR T790M [1]; EGFR 6 µM, n=1-3): 6.037 and 7.198 and 5.58
- Kinase activity (EGFR L858R; Log [HX103 (M)] -5.5): 1.026 and 1.162 and 1.004
- Kinase activity (EGFR L858R; Log [HX103 (M)] -6): 0.499 and 0.9509 and 0.7157
- Kinase activity (EGFR L858R; Log [HX103 (M)] -7): 0.6308 and 0.9321 and 0.7802
- Kinase activity (EGFR L858R; Log [HX103 (M)] -7.5): 4.698 and 2.842 and 4.52
- Kinase activity (EGFR L858R; Log [HX103 (M)] -8): 12.69 and 17.65 and 16.97
- Kinase activity (EGFR L858R; Log [HX103 (M)] -8.5): 28.21 and 40.93 and 37.97
- Kinase activity (EGFR L858R; Log [HX103 (M)] -9): 37.52 and 69.85 and 65.69
- IC50 (EGFR L858R; n = 3): 1.5 nM
- decrease of inhibition toward T790M compared to 19del (EGFR T790M [2]; IC50 T790M vs 19del): ~ 750 fold
- decrease of inhibition toward T790M compared to L858R (EGFR T790M [2]; IC50 T790M vs L858R): ~ 650 fold
- Kinase activity (EGFR T790M [2]; Log [HX103 (M)] -4.5): 14.55 and 14.95 and 12.5
- Kinase activity (EGFR T790M [2]; Log [HX103 (M)] -5): 16 and 19.07 and 16.33
- Kinase activity (EGFR T790M [2]; Log [HX103 (M)] -5.5): 24.68 and 25.89 and 23.04
- Kinase activity (EGFR T790M [2]; Log [HX103 (M)] -6): 50.45 and 49.72 and 50.33
- Kinase activity (EGFR T790M [2]; Log [HX103 (M)] -6.5): 74.42 and 70.48 and 67.65
- Kinase activity (EGFR T790M [2]; Log [HX103 (M)] -7): 85.94 and 86.13 and 86.01
- Kinase activity (EGFR T790M [2]; Log [HX103 (M)] -7.5): 96.44 and 90.88 and 91.86
- Kinase activity (EGFR T790M [2]; Log [HX103 (M)] -8): 104.4 and 100.7 and 101.1
- Kinase activity (EGFR T790M [2]; Log [HX103 (M)] -8.5): 97.33 and 103.4 and 97.96
